Where two headings read alike, the source gives them in different places.
How the values were obtained:
[1] = tested on: lipid peroxidation in rat hepatocyte; assay: Inhibitory action on lipid peroxidation (rat hepatocyte, TBA color formation, absorbance at 530 nm); assay type: biochemical; details: 37° C., 1 hour; for Inhibition ratio (at Final Concentration of Tested Compound) 10^-4 M: final concentration 10^-4 M, 100 µM; for Inhibition ratio (at Final Concentration of Tested Compound) 10^-5 M: final concentration 10^-5 M, 10 µM
Description: A hepatocyte was isolated from rat according to the method of Ui et al (Hiroshi Oka and Tadao Ui: "Isolated Cells--Experimental and Application",page 91). The determination of lipid peroxidation was performed using a died hepatocyte which had been frozen at -85° C. and stored at the temperature and which was melted when the experimental was done. […] The centrifugal tube was shaken at 37° C. for 1 hour for performing a reaction, and then placed into an ice-water bath to terminate the reaction. […] The centrifugal tube was taken out of the ice-water bath and placed in a water bath (kept at 95°-98° C.). The content of the tube was heated in the bath for 1 hour for developing color-formation. After the heating was complete, the content of the tube was cooled and subjected to centrifugal separation. The inhibitory action on lipid peroxidation of the sample was determined by measuring absorbance at 530 nm. The determined inhibitory action is expressed inhibition ratio by percent (%) calculated by the following equation: [formula] In Table 3, the number of the tested compound corresponds to the identical number set forth in Tables 1 and 2 for identifying the compounds of the invention.

[2] = tested on: acute liver disease caused by CCl4 (Wister-strain rat); assay: Preventive action on deviation of GOT value and GPT value in vivo using model of acute liver disease caused by CCl4
Description: CCl4 in olive oil (concentration: 50%) was orally administered to a Wister-strain rat (body weight: 170-180 g) fasted for 24 hrs., at a dose of 1 ml/kg, to cause acute liver disease. […] For control group, 1.0% methylcellulose (MC) was administered in place of the piperazine derivative. For normal group, a simple olive oil was administered in place of the CCl4 -containing olive oil. For the administration, the piperazine derivative was employed in the form of a dispersion in aqueous MC solution (concentration: 1.0%). At 24 hours after the administration of CCl4, the rat was abdominally sectioned under ether anesthesia. From the abrominal large vein, a blood was collected. The collected blood was subjected to centrifugal separation at 3,000 r.p.m. for 10 min to obtain its plasma. […] The results are set forth in Table 4 in terms of a ratio (%) of suppression (prevention) of GOT or GPT. In Table 4, "***" means 90-100%, "**" means 60-90%, and "*" means 30-60%. The ratio of suppression is calculated according to the following equation. [formula]

[3] = Toxicity by oral administration; assay type: in vivo; details: even at 1,600 mg/kg by oral administration
Description: Further, it has been experimentally confirmed that all of piperazine derivatives of the invention tested for toxicity (Compound Nos. 4, 5, 22, 23, 32, 33, 38, 75 and 113 indicated in Tables 1 and 2) cause no death even at 1,600 mg/kg by oral administration.

[4] = Rattus norvegicus, po, 24 h, read-out: ratio (%) of suppression (prevention) of GOT
[5] = Rattus norvegicus, po, 24 h, read-out: ratio (%) of suppression (prevention) of GPT
[6] = rat, 30 mg/kg, 3 hour before oral CCl4, plasma GOT at 24 hours after CCl4, read-out: ratio (%) of suppression (prevention) of GOT
[7] = rat, 30 mg/kg, 3 hour before oral CCl4, plasma GPT at 24 hours after CCl4, read-out: ratio (%) of suppression (prevention) of GPT

Structure (SMILES)	Inhibition ratio (at Final Concentration of Tested Compound) 10^-4 M [1] [%]	Inhibition ratio (at Final Concentration of Tested Compound) 10^-5 M [1] [%]	inhibition in vivo at 30 mg/kg [2, 4] [%]	inhibition in vivo at 30 mg/kg [2, 5] [%]	death in toxicity test [3]	inhibition in vivo at 30 mg/kg [2, 6] [%]	inhibition in vivo at 30 mg/kg [2, 7] [%]
CSC(=S)N1CCN(Cc2ccccc2O)CC1 [Compound 4, Methyl 4-(2-hydroxybenzyl)-1-piperazinecarbodithioate]	100	96.6	90 to 100	90 to 100	no death		
COc1ccccc1CN1CCN(C(=S)SC)CC1 [Compound 5, Methyl 4-(2-methoxybenzyl)-1-piperazinecarbodithioate]			90 to 100	90 to 100	no death		
CSC(=S)N1CCN(Cc2cc(O)ccc2O)CC1.Cl [Compound 16, Methyl 4-(2,5-dihydroxybenzyl)-1-piperazinecarbodithioate hydrochloride]	73.4	69.4				90 to 100	90 to 100
COc1cccc(CN2CCN(C(=S)SC)CC2)c1OC [Compound 22, Methyl 4-(2,3-dimethoxybenzyl)-1-piperazinecarbodithioate]	100	92.0	90 to 100	60 to 90	no death		
COc1ccc(OC)c(CN2CCN(C(=S)SC)CC2)c1 [Compound 23, Methyl 4-(2,5-dimethoxybenzyl)-1-piperazinecarbodithioate]	100	60.6	90 to 100	90 to 100	no death		
CSC(=S)N1CCN(Cc2ccc(O)c(O)c2O)CC1 [Compound 32, Methyl 4-(2,3,4-trihydroxybenzyl)-1-piperazinecarbodithioate]	87.8	87.4	60 to 90	60 to 90	no death		
COc1ccc(CN2CCN(C(=S)SC)CC2)c(OC)c1OC [Compound 33, Methyl 4-(2,3,4-trimethoxybenzyl)-1-piperazinecarbodithioate]			90 to 100	60 to 90	no death		
COc1cc(C=O)cc(CN2CCN(C(=S)SC)CC2)c1O [Compound 38, Methyl 4-(5-formyl-2-hydroxy-3-methoxybenzyl)-1-piperazinecarbodithioate]			60 to 90	60 to 90	no death		
CCCOC(=O)c1cc(O)c(O)c(O)c1CN1CCN(C(=S)SC)CC1 [Compound 44, Methyl 4-(6-propyloxycarbonyl-2,3,4-trihydroxybenzyl)-1-piperazinecarbodithioate]	96.6	96.0				90 to 100	60 to 90
COc1c(O)c(C)c(CN2CCN(C(=S)SC)CC2)c(O)c1OC [Compound 47, Methyl 4-(2,5-dihydroxy-3,4-dimethoxy-6-methylbenzyl)-1-piperazinecarbodithioate]	100	56.1				90 to 100	90 to 100
COc1c(OC(C)=O)c(C)c(CN2CCN(C(=S)SC)CC2)c(OC(C)=O)c1OC [Compound 48, Methyl 4-(2,5-diacetoxy-3,4-dimethoxy-6-methylbenzyl)-1-piperazinecarbodithioate]	96.2	97.5				60 to 90	60 to 90
CSC(=S)N1CCN(CC(O)c2ccc(O)c(O)c2)CC1 (stereo not shown) [Compound 73, Methyl 4-{2-(3,4-dihydroxyphenyl)-2-hydroxy}ethyl-1-piperazinecarbodithioate]	88.4	44.5				60 to 90	60 to 90
COc1ccc(CC(=O)N2CCN(C(=S)SC)CC2)c(OC)c1OC [Compound 75, Methyl 4-(2,3,4-trimethoxyphenylacetyl)-1-piperazinecarbodithioate]			60 to 90	60 to 90	no death		
CSC(=S)N1CCN(CC2=C(C)C(=O)C(C)=C(C)C2=O)CC1 [Compound 113, Methyl 4-(3,5,6-trimethyl-1,4-benzoquinonylmethyl)-1-piperazinecarbodithioate]			90 to 100	60 to 90	no death		
